One experiment relates to Jurkat. Put plainly: cells. Conditions: Homo sapiens, 48 h.
The subject of another experiment is NCI-H460. Nature of the experiment: cells. To be noted: Homo sapiens, NCI-H460, 48 h.
For the next experiment, the system named is SiHa. Nature of the experiment: cells. Conditions: Homo sapiens, 48 h.
Experiment [1] has as its system HCT-116. Put plainly: cells. Conditions: Homo sapiens, HCT-116, 48 h.
Description: Antiproliferative activity against human HCT-116 p53-/- cells assessed as reduction in cell viability incubated for 48 hrs by sulphorhodamine B assay
The next experiment deals with MCF7. Put plainly: cells. Conditions: Homo sapiens, MCF7, 48 h.
For experiment [2], the system named is HCT-116. Put plainly: cells. Conditions: Homo sapiens, HCT-116, 48 h. The source holds these as a separate data set.
Description: Antiproliferative activity against human HCT-116 cells assessed as reduction in cell viability incubated for 48 hrs by sulphorhodamine B assay
In a further experiment the test system is HeLa. Put plainly: cells. Conditions: Homo sapiens, 48 h.
A further experiment deals with U-251. Put plainly: cells. To be noted: Homo sapiens, U-251, 48 h.
The next experiment concerns MDA-MB-231. Put plainly: cells. To be noted: Homo sapiens, MDA-MB-231, 48 h.
Another experiment relates to HEK293. Put plainly: Antiproliferative activity against human HEK293 cells assessed as reduction in cell viability incubated for 48 hrs by sulphorhodamine B assay. Type of experiment: functional. On the technique in general: Sulforhodamine B stains cellular protein and so reports cell mass.
A further experiment concerns A549. Nature of the experiment: Antiproliferative activity against human A549 cells assessed as reduction in cell viability incubated for 48 hrs by sulphorhodamine B assay. Type of experiment: functional.
The next experiment concerns Calf thymus DNA. Nature of the experiment: Binding affinity to calf thymus DNA assessed as hypochromic effect at 3*10^-5 mol/L by double beam UV-Vis spectroscopic analysis. Conditions: Bos taurus. In kind it is nucleic-acid assay.

We go through 23 molecules from ChEMBL document CHEMBL4706477, “Synthesis and Biological Evaluation of Calothrixins B and their Deoxygenated Analogues” (J Med Chem, 2018).

SMILES strings stand for the structures.

Description for HeLa: Antiproliferative activity against human HeLa cells assessed as reduction in cell viability incubated for 48 hrs by sulphorhodamine B assay
Description for Jurkat: Antiproliferative activity against human Jurkat cells assessed as reduction in cell viability incubated for 48 hrs by sulphorhodamine B assay
Description for MCF7: Antiproliferative activity against human MCF7 cells assessed as reduction in cell viability incubated for 48 hrs by sulphorhodamine B assay
Description for MDA-MB-231: Antiproliferative activity against human MDA-MB-231 cells assessed as reduction in cell viability incubated for 48 hrs by sulphorhodamine B assay
Description for NCI-H460: Antiproliferative activity against human NCI-H460 cells assessed as reduction in cell viability incubated for 48 hrs by sulphorhodamine B assay
Description for SiHa: Antiproliferative activity against human SiHa cells assessed as reduction in cell viability incubated for 48 hrs by sulphorhodamine B assay
Description for U-251: Antiproliferative activity against human U-251 cells assessed as reduction in cell viability incubated for 48 hrs by sulphorhodamine B assay

The term GI50 denotes the concentration at which growth is held to half of that of the control. For the molecule `O=C1c2[nH]c3ccccc3c2C(=O)c2cnc3cc(Cl)c(Cl)cc3c21`, the GI50 in the experiment on Jurkat is over 4 µM; in the experiment with NCI-H460, over 4000 nM; with SiHa, over 4000 nM; with HCT-116 [1], over 4000 nM; with MCF7, over 4000 nM; with HCT-116 [2], over 4000 nM. Besides, the GI50 in the experiment with HeLa was 1800 nM; in the experiment on U-251, over 4000 nM; in the experiment with MDA-MB-231 it was 1800 nM.

For the molecule `COc1cc2ncc3c(c2cc1OC)C(=O)c1[nH]c2ccccc2c1C3=O`, the GI50 is over 4 µM with Jurkat; over 4000 nM in the experiment on NCI-H460; over 4000 nM with SiHa; over 4000 nM in the experiment on HCT-116 [1]; 360 nM in the experiment with MCF7; over 4000 nM with HCT-116 [2]. Besides, the GI50 in the experiment with HeLa, in the experiment on U-251 and with MDA-MB-231 was over 4000 nM each time.

As to `O=C1c2[nH]c3ccccc3c2C(=O)c2cnc3cc(Br)ccc3c21`, the GI50 in the experiment on Jurkat is 1.5 µM; in the experiment on NCI-H460 it was 1270 nM; with SiHa, over 4000 nM; in the experiment with HCT-116 [1] it was 2600 nM; in the experiment with MCF7 it was 600 nM; in the experiment with HCT-116 [2], 1500 nM. Moreover, the values for the GI50 in the experiment with HeLa, in the experiment on U-251 and in the experiment with MDA-MB-231 were 210 nM, 2000 nM and 1000 nM, respectively.

`Clc1ccc2c(c1)ncc1cc3c(cc12)[nH]c1ccccc13`: the GI50 is over 4 µM with Jurkat; 10000 nM in the experiment on NCI-H460; over 4000 nM with SiHa; over 4 µM in the experiment with HEK293; over 4000 nM with MCF7; 28000 nM with HCT-116 [2]. Besides, the GI50 is 430 nM in the experiment on HeLa, over 4000 nM in the experiment with U-251, over 4 µM with A549 and over 4000 nM with MDA-MB-231.

For the molecule `c1ccc2c(c1)ccc1cc3c(cc12)[nH]c1ccccc13`, the GI50 with Jurkat is over 4 µM; in the experiment with NCI-H460 it was over 50000 nM; in the experiment on SiHa, over 4000 nM; with HEK293, over 4 µM; in the experiment with MCF7 it was over 4000 nM; with HCT-116 [2], over 50000 nM. For the same molecule, the GI50 was over 4000 nM in the experiment with HeLa, over 4000 nM in the experiment with U-251, over 4 µM with A549 and over 4000 nM with MDA-MB-231.

Regarding `Nc1nc2cc(Cl)ccc2c2cc3[nH]c4ccccc4c3cc12`, the GI50 with NCI-H460 is 1050 nM; with SiHa it was 1100 nM; in the experiment with MCF7, 950 nM; with HCT-116 [2], 1000 nM; in the experiment with HeLa, 530 nM; with U-251 it was 1200 nM. The molecule further showed a GI50 in the experiment on MDA-MB-231 of 900 nM. The Activity in the experiment with Calf thymus DNA was determined as 38%.

Turning to `Nc1nc2ccccc2c2cc3c(cc12)[nH]c1ccccc13`, the GI50 in the experiment on NCI-H460 was determined as 1050 nM; in the experiment on SiHa, 1300 nM; in the experiment on MCF7 it was 1000 nM; in the experiment on HCT-116 [2], 1050 nM; with HeLa, 1400 nM; in the experiment on U-251, 650 nM. Also, the GI50 with MDA-MB-231 was 1100 nM.

As for `O=C1c2[nH]c3ccccc3c2C(=O)c2cnc3ccc(Cl)cc3c21`, the GI50 with Jurkat came to 1.4 µM; with NCI-H460, 700 nM; in the experiment on SiHa, 1670 nM; with HCT-116 [1], 1500 nM; with MCF7, 350 nM; with HCT-116 [2], 420 nM. In addition, the GI50 in the experiment on HeLa is 500 nM; in the experiment with U-251 it was 500 nM; in the experiment with MDA-MB-231, 170 nM.

Consider `O=C1c2[nH]c3ccccc3c2C(=O)c2cnc3cc(F)c(Cl)cc3c21`, for which the GI50 in the experiment on Jurkat is over 4 µM; with NCI-H460 it was over 4000 nM; with SiHa, over 4000 nM; with HCT-116 [1] it was over 4000 nM; with MCF7, 1350 nM; in the experiment on HCT-116 [2], over 4000 nM. Also, the GI50 in the experiment on HeLa is 2000 nM; in the experiment on U-251, over 4000 nM; in the experiment on MDA-MB-231 it was over 4000 nM.

Regarding `O=C1c2cnc3cccc(Cl)c3c2C(=O)c2[nH]c3ccccc3c21`, the GI50 is over 4 µM in the experiment on Jurkat; over 4000 nM with NCI-H460; over 4000 nM in the experiment with SiHa; over 4000 nM in the experiment with HCT-116 [1]; 800 nM in the experiment on MCF7; 3500 nM with HCT-116 [2]. The GI50 in the experiment with HeLa, in the experiment on U-251 and in the experiment with MDA-MB-231 was over 4000 nM throughout.

As for `O=C1c2cnc3c(Cl)cc(Cl)cc3c2C(=O)c2[nH]c3ccccc3c21`, the GI50 is 2.6 µM with Jurkat; 730 nM with NCI-H460; 1800 nM in the experiment on SiHa; 2000 nM with HCT-116 [1]; 500 nM in the experiment with MCF7; 1200 nM with HCT-116 [2]. The GI50 in the experiment with HeLa is 500 nM; in the experiment with U-251, 1500 nM; in the experiment with MDA-MB-231, 200 nM.

Take `COc1cccc2c3c(cnc12)C(=O)c1c([nH]c2ccccc12)C3=O`: the GI50 is over 4 µM in the experiment on Jurkat; over 4000 nM in the experiment on NCI-H460; over 4000 nM with SiHa; over 4000 nM in the experiment on HCT-116 [1]; 600 nM in the experiment with MCF7; 330 nM with HCT-116 [2]. Further, the GI50 in the experiment with HeLa was 390 nM; in the experiment with U-251, 1830 nM; with MDA-MB-231, 310 nM.

Take `O=C1c2cnc3c(Cl)cccc3c2C(=O)c2[nH]c3ccccc3c21`: the GI50 with Jurkat is over 4 µM; in the experiment on NCI-H460, over 4000 nM; in the experiment on SiHa it was over 4000 nM; in the experiment on HCT-116 [1], over 4000 nM; in the experiment on MCF7 it was over 4000 nM; in the experiment on HCT-116 [2], over 4000 nM. In addition, the GI50 in the experiment on HeLa, in the experiment on U-251 and with MDA-MB-231 was over 4000 nM in each case.

Regarding `COc1ccc2ncc3c(c2c1)C(=O)c1[nH]c2ccccc2c1C3=O`, the GI50 was over 4 µM in the experiment with Jurkat; over 4000 nM in the experiment on NCI-H460; over 4000 nM in the experiment with SiHa; over 4000 nM with HCT-116 [1]; over 4000 nM in the experiment with MCF7; 630 nM with HCT-116 [2]. Moreover, the GI50 in the experiment with HeLa, in the experiment on U-251 and in the experiment on MDA-MB-231 was over 4000 nM in each case.

Turning to `O=C1c2[nH]c3ccccc3c2C(=O)c2cnc3cc(F)c(Br)cc3c21`, the GI50 with Jurkat was over 4 µM; in the experiment on NCI-H460, 2250 nM; in the experiment on SiHa, over 4000 nM; with HCT-116 [1], over 4000 nM; with MCF7, 660 nM; in the experiment with HCT-116 [2] it was over 4000 nM. Also, the GI50 was 270 nM in the experiment with HeLa, over 4000 nM in the experiment on U-251 and 400 nM in the experiment with MDA-MB-231.

In the case of `O=C1c2[nH]c3ccccc3c2C(=O)c2cnc3cc(Cl)ccc3c21`, the GI50 with Jurkat was 3.55 µM; with NCI-H460, 1400 nM; with SiHa it was 1600 nM; with HCT-116 [1], 2600 nM; in the experiment with MCF7 it was 530 nM; in the experiment on HCT-116 [2], 1500 nM. Also, the GI50 in the experiment with HeLa is 70 nM; with U-251, 2830 nM; in the experiment with MDA-MB-231, 360 nM.

Take `Nc1nc2ccccc2c2cc3[nH]c4ccccc4c3cc12`: the GI50 in the experiment on NCI-H460 was determined as 1000 nM; in the experiment with SiHa, 1050 nM; with MCF7, 1000 nM; with HCT-116 [2], 1000 nM; in the experiment on HeLa it was 800 nM; in the experiment on U-251 it was 1050 nM. For the same molecule, the GI50 with MDA-MB-231 turned out to be 1000 nM.

Take `CC[C@@]1(O)C(=O)OCc2c1cc1n(c2=O)Cc2cc3ccccc3nc2-1` [CAMPTOTHECIN]: the GI50 in the experiment on Jurkat stood at 0.06 µM; in the experiment with NCI-H460, 5.7 nM; with SiHa, 550 nM; with HCT-116 [1], 195 nM; in the experiment with MCF7, 60 nM; in the experiment with HCT-116 [2] it was 50 nM. Moreover, the values for the GI50 in the experiment with HeLa, in the experiment on U-251 and in the experiment on MDA-MB-231 were 190 nM, 10 nM and 400 nM, respectively.

Consider `O=C1c2[nH]c3ccccc3c2C(=O)c2cnc3cc4c(cc3c21)OCO4`, for which the GI50 with Jurkat was over 4 µM; with NCI-H460, over 4000 nM; in the experiment on SiHa, over 4000 nM; in the experiment with HCT-116 [1], over 4000 nM; with MCF7, 110 nM; in the experiment on HCT-116 [2] it was over 4000 nM. Moreover, the GI50 with HeLa, with U-251 and in the experiment with MDA-MB-231 was over 4000 nM in each case.

Consider `Nc1nc2cc(F)ccc2c2cc3[nH]c4ccccc4c3cc12`, for which the GI50 turned out to be 140 nM with NCI-H460; 1350 nM in the experiment with SiHa; 130 nM in the experiment on MCF7; 1200 nM with HCT-116 [2]; 10 nM in the experiment with HeLa; 1200 nM in the experiment with U-251. The molecule further had a GI50 in the experiment with MDA-MB-231 of 1250 nM.

`c1ccc2c(c1)ncc1cc3[nH]c4ccccc4c3cc12`: the GI50 was over 4 µM with Jurkat; 10000 nM in the experiment on NCI-H460; over 4000 nM in the experiment with SiHa; over 4 µM with HEK293; over 4000 nM in the experiment with MCF7; over 50000 nM in the experiment on HCT-116 [2]. Further, the GI50 with HeLa was 1400 nM; with U-251 it was over 4000 nM; in the experiment with A549, over 4 µM; in the experiment on MDA-MB-231 it was over 4000 nM.

With `O=C1c2[nH]c3ccccc3c2C(=O)c2cnc3ccc(Br)cc3c21`, the GI50 in the experiment on Jurkat stood at 1.5 µM; with NCI-H460, 1100 nM; in the experiment with SiHa, 1400 nM; in the experiment on HCT-116 [1], 1130 nM; with MCF7 it was 220 nM; in the experiment on HCT-116 [2], 700 nM. Moreover, the GI50 in the experiment with HeLa was found to be 290 nM; in the experiment on U-251, 600 nM; with MDA-MB-231, 270 nM.

As for `Cc1c2cnc3cc(F)ccc3c2cc2[nH]c3ccccc3c12`, the GI50 is over 4 µM in the experiment with Jurkat; 40 nM in the experiment with NCI-H460; over 4000 nM with SiHa; over 4 µM in the experiment on HEK293; 270 nM with MCF7; 30000 nM with HCT-116 [2]. Further, the GI50 in the experiment with HeLa was 50 nM; with U-251, over 4000 nM; in the experiment on A549 it was over 4 µM; in the experiment with MDA-MB-231 it was over 4000 nM.
